Data: publication PMC4113732, “Novel Preclinical and Radiopharmaceutical Aspects of [^68Ga]Ga-PSMA-HBED-CC: A New PET Tracer for Imaging of Prostate Cancer” (Pharmaceuticals, 2014)

Molecular target: T1, prostate-specific membrane antigen (PSMA) (Homo sapiens, UniProt Q04609)
T1 construct: gene FOLH1
Experiment: competitive radioligand binding on intact PSMA-expressing LNCaP cells against [^[…]]Ga-PSMA-HBED-CC
Format: cell-based

T1 sequence (Q04609 whole entry): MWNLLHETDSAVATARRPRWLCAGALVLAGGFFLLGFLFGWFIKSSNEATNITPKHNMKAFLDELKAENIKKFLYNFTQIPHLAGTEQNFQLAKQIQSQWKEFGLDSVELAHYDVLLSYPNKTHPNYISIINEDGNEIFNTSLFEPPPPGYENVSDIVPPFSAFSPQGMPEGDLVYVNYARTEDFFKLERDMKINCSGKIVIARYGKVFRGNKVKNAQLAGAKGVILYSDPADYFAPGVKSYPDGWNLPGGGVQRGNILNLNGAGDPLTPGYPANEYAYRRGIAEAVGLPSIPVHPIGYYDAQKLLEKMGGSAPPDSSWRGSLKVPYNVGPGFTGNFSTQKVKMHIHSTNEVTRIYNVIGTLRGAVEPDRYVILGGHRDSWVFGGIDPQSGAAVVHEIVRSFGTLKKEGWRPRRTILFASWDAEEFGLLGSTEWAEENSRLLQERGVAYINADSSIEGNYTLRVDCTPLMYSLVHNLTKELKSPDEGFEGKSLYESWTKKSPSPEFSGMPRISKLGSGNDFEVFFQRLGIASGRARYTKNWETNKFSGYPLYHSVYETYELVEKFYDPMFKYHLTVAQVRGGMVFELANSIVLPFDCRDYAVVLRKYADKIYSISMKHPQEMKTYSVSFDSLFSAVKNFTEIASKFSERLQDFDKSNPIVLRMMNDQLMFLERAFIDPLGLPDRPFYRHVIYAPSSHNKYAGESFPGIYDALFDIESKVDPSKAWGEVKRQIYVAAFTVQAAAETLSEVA

SMILES: O=C(O)CCc1ccc2c(c1)CN1CCN(CC(=O)O)Cc3cc(CCC(=O)NCCCCCC(=O)NCCCC[C@H](NC(=O)N[C@@H](CCC(=O)O)C(=O)O)C(=O)O)ccc3[O][Ga]([O]C(=O)C1)[O]2 [[^natGa]Ga-PSMA-HBED-CC]
- IC50: 24.8 ± 1.2 nM
